# Measured values: article PMC5931475, “Deciphering the molecular determinants of cholinergic anthelmintic sensitivity in nematodes: When novel functional validation approaches highlight major differences between the model Caenorhabditis elegans and parasitic species” (PLoS Pathogens, 2018)
# Columns and labels:
# [1] = target: T1, composite Cel-L-AChR with Dim-ACR-8 (29/38/63/L1 + Dim-ACR-8); assay: two-electrode voltage clamp, Xenopus oocytes; type: cell-based, Caenorhabditis elegans; Dirofilaria immitis; conditions: read-out: Lev EC50; agonist; responses normalized to 100 μM ACh
# T1 construct: mixed-species complex of whole subunits; cRNA in Xenopus laevis oocytes with C. elegans RIC-3, UNC-50, UNC-74; LEV-8 replaced by D. immitis ACR-8
# [2] = system: T1, composite Cel-L-AChR with Dim-ACR-8 (29/38/63/L1 + Dim-ACR-8); set-up: species or system Xenopus laevis oocytes; Agonist-evoked currents in cRNA-injected oocytes, concentration-response normalized to 100 uM ACh; conditions: Imax as % of 100 uM ACh response; agonist
# T1 sequence (A0A2I6TEL0 22-518): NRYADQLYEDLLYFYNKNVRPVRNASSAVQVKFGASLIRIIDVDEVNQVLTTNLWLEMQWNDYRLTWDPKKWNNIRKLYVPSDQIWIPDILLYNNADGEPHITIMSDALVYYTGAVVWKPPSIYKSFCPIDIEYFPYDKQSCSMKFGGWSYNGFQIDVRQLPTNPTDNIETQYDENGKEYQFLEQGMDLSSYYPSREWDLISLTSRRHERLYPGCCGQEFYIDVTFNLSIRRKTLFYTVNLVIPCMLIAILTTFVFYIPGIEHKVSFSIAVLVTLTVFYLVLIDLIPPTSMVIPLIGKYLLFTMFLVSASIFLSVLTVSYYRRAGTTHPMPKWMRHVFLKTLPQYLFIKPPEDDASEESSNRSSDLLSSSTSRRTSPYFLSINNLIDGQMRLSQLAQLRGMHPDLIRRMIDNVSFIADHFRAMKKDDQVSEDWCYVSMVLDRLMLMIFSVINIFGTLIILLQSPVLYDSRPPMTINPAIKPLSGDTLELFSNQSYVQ
# T1 sequence (Q23022 17-511, further chain): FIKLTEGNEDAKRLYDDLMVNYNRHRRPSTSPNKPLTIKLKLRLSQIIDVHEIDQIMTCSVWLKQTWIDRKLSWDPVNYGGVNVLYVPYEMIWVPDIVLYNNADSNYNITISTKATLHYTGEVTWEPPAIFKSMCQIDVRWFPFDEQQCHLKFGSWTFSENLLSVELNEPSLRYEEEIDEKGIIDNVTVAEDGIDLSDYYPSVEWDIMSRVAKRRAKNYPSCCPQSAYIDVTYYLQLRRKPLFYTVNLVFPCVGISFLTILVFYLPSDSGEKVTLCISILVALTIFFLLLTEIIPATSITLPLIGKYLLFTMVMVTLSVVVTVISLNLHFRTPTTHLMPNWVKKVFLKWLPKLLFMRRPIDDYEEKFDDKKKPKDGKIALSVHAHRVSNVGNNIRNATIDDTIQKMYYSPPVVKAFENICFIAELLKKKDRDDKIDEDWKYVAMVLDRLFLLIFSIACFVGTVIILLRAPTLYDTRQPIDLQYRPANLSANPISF
# T1 sequence (Q9N587 24-502, further chain): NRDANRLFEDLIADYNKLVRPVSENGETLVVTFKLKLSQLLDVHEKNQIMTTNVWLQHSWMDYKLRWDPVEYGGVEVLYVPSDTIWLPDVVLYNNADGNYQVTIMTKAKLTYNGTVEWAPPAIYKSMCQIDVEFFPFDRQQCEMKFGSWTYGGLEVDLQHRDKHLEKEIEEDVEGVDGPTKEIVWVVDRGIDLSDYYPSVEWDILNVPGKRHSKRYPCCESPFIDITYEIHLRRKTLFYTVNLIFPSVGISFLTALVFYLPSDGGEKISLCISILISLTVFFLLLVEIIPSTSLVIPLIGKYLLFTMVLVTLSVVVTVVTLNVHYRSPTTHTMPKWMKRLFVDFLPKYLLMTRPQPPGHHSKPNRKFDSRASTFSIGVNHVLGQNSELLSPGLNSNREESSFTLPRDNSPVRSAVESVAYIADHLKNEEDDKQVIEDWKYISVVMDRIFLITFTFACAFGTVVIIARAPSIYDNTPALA
# T1 sequence (P48181 27-493, further chain): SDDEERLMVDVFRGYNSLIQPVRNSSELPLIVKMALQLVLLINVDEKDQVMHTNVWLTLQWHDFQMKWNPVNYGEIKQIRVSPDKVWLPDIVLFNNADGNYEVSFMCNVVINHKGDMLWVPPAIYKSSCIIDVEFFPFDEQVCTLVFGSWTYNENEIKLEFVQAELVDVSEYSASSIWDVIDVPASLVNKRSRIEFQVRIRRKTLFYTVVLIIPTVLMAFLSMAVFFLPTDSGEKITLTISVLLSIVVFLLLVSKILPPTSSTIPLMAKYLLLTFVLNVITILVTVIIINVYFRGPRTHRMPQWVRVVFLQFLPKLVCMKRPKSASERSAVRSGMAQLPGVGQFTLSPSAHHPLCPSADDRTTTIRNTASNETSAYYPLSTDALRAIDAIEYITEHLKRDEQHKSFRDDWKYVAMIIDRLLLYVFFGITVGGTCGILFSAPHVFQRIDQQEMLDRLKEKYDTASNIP
# T1 sequence (Q27218 32-507, further chain): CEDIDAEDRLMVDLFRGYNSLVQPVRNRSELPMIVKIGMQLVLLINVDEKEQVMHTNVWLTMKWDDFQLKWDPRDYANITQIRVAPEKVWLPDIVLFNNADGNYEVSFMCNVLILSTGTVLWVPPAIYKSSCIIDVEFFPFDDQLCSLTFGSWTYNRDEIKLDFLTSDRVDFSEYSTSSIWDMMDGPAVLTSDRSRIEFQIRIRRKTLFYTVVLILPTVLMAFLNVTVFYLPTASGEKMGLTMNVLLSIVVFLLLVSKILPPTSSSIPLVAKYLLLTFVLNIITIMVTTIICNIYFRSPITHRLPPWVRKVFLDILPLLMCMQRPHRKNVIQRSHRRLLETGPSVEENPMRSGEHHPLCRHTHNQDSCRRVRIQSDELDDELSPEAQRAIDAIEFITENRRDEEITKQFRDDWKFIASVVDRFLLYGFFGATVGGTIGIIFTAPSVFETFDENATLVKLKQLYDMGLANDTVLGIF
structure (smiles),measurement,setting,value
c1ccc([C@H]2CN3CCSC3=N2)cc1 [levamisole],EC50,[1],5.9 ± 1.3 µM
same,Lev Imax,[2],29.0 ±1.2%
